BindingDB's records for doi:10.1021/jm980537b (Agouron Pharmaceuticals, 1999)

Assays:
[1] = Increased percentage of formazan production in drug treated virus infected cells to equal 50% of control drug free uninfected cells on serotype 14
[2] = The EC50 was calculated as the concentration of drug that increased the percentage of formazan production in drug treated, virus infected cells to 50% of that produced by drug free uninfected cells on serotype 1A.
[3] = The EC50 was calculated as the concentration of drug that increased the percentage of formazan production in drug treated, virus infected cells to 50% of that produced by drug free uninfected cells on serotype 2.
[4] = The EC50 was calculated as the concentration of drug that increased the percentage of formazan production in drug treated,virus infected cells to 50% of that produced by drug free uninfected cells on serotype 10.
[5] = The EC50 was calculated as the concentration of drug that increased the percentage of formazan production in drug treated, virus infected cells to 50% of that produced by drug free uninfected cells on serotype 1A.; remark: listed apart in the source

| Structure (SMILES) | EC50 [1] | EC50 [2] | EC50 [3] | EC50 [4] | EC50 [5] |
| --- | --- | --- | --- | --- | --- |
| CCOC(=O)/C=C/[C@H](CCC(N)=O)NC(=O)[C@@H](CC(=O)[C@H](CC(C)C)NC(=O)OCc1ccccc1)Cc1ccccc1 [(E)-(S)-4-((2R,5S)-2-Benzyl-5-benzyloxycarbonylamino-7-methyl-4-oxo-octanoylamino)-6-carbamoyl-hex-2-enoic acid ethyl ester] | 360 nM |  |  |  |  |
| CCOC(=O)/C=C/[C@H](CCC(N)=O)NC(=O)[C@@H](CC(=O)[C@@H](NC(=O)SCc1ccccc1)C(C)C)Cc1ccccc1 [(E)-(S)-4-((2R,5S)-2-Benzyl-5-benzylsulfanylcarbonylamino-6-methyl-4-oxo-heptanoylamino)-6-carbamoyl-hex-2-enoic acid ethyl ester] | 190 nM |  |  |  |  |
| CCOC(=O)/C=C/[C@H](CCC(N)=O)NC(=O)[C@@H](CC(=O)[C@H](CC(C)C)NC(=O)SCc1ccccc1)Cc1ccccc1 [(E)-(S)-4-((2R,5S)-2-Benzyl-5-benzylsulfanylcarbonylamino-7-methyl-4-oxo-octanoylamino)-6-carbamoyl-hex-2-enoic acid ethyl ester] | 680 nM |  |  |  |  |
| CCOC(=O)/C=C/[C@H](CCC(N)=O)NC(=O)[C@@H](CC(=O)[C@@H](NC(=O)SC1CCCC1)C(C)(C)C)Cc1ccccc1 [(E)-(S)-4-((2R,5S)-2-Benzyl-5-cyclopentylsulfanylcarbonylamino-6,6-dimethyl-4-oxo-heptanoylamino)-6-carbamoyl-hex-2-enoic acid ethyl ester] | 50 nM | 430 nM |  |  |  |
| CCOC(=O)/C=C/[C@H](CCC(N)=O)NC(=O)[C@@H](CC(=O)[C@@H](NC(=O)SC1CCCC1)C(C)C)Cc1ccccc1 [(E)-(S)-4-((2R,5S)-2-Benzyl-5-cyclopentylsulfanylcarbonylamino-6-methyl-4-oxo-heptanoylamino)-6-carbamoyl-hex-2-enoic acid ethyl ester] | 20 nM |  | 100 nM | 35 nM |  |
| CCOC(=O)/C=C/[C@H](CCC(N)=O)NC(=O)[C@@H](CC(=O)[C@H](CC(C)C)NC(=O)SC1CCCC1)Cc1ccccc1 [(E)-(S)-4-((2R,5S)-2-Benzyl-5-cyclopentylsulfanylcarbonylamino-7-methyl-4-oxo-octanoylamino)-6-carbamoyl-hex-2-enoic acid ethyl ester] | 190 nM |  |  |  |  |
| CCOC(=O)/C=C/[C@H](CCC(N)=O)NC(=O)[C@@H](CC(=O)[C@@H](NC(=O)SC1CCCC1)C(C)C)Cc1ccc(F)cc1 [(E)-(S)-6-Carbamoyl-4-[(2R,5S)-5-cyclopentylsulfanylcarbonylamino-2-(4-fluoro-benzyl)-6-methyl-4-oxo-heptanoylamino]-hex-2-enoic acid ethyl ester] | 20 nM | 170 nM |  |  |  |
| CCOC(=O)/C=C/[C@H](CCC(N)=O)NC(=O)[C@@H](CC(=O)[C@H](CC(C)C)NC(=O)SC1CCCC1)Cc1ccc(F)cc1 [(E)-(S)-6-Carbamoyl-4-[(2R,5S)-5-cyclopentylsulfanylcarbonylamino-2-(4-fluoro-benzyl)-7-methyl-4-oxo-octanoylamino]-hex-2-enoic acid ethyl ester] | 280 nM | 600 nM | 710 nM | 1600 nM |  |
| CCOC(=O)/C=C/[C@H](CCC(N)=O)NC(=O)[C@@H](CC(=O)[C@@H](NC(=O)SC1CCCC1)C(C)C)Cc1ccc(C)cc1 [(E)-(S)-6-Carbamoyl-4-[(2R,5S)-5-cyclopentylsulfanylcarbonylamino-6-methyl-2-(4-methyl-benzyl)-4-oxo-heptanoylamino]-hex-2-enoic acid ethyl ester] | 6 nM | 160 nM | 130 nM | 60 nM |  |
| CCOC(=O)/C=C/[C@H](CCC(N)=O)NC(=O)[C@@H](CC(=O)[C@@H](NC(=O)SC1CCCC1)C(C)C)Cc1ccc(C(F)(F)F)cc1 [(E)-(S)-6-Carbamoyl-4-[(2R,5S)-5-cyclopentylsulfanylcarbonylamino-6-methyl-4-oxo-2-(4-trifluoromethyl-benzyl)-heptanoylamino]-hex-2-enoic acid ethyl ester] | 50 nM |  |  | 160 nM |  |
| CCOC(=O)/C=C/[C@H](CCC(N)=O)NC(=O)[C@@H](CC(=O)[C@H](CC(C)C)NC(=O)SC1CCCC1)Cc1ccc(C)cc1 [(E)-(S)-6-Carbamoyl-4-[(2R,5S)-5-cyclopentylsulfanylcarbonylamino-7-methyl-2-(4-methyl-benzyl)-4-oxo-octanoylamino]-hex-2-enoic acid ethyl ester] |  |  | 1000 nM | 1400 nM | 560 nM |
